Source: patent US9526785B2, “Pharmaceuticals for oral delivery” (Enteris BioPharma, Inc., priority 2013, dated 2016)
Read-outs that look alike come from different tables or passages of the source.

Test: Tigecycline plasma PK and % F after intraduodenal (ID) injection in anesthetized rats
Assay type: in vivo, Sprague-Dawley Rats
Conditions: female, Sprague-Dawley, rat, plasma
Method: Animals weighed approximately 250 g at the time of testing. Rats were fasted overnight (with water available), prior to dosing.
Intravenous (IV) doses were administered as a bolus injection into the left carotid […] at a dose volume of 1.6 mL/kg. Intraduodenal doses were administered as bolus injections into the duodenum at a dose volume of 1.2 mL/kg.
An additional study was conducted exploring the effect of formulation pH at constant CA and LLC concentrations (RA867).
Female rats were maintained in groups of 3 per polycarbonate (or equivalent) shoebox cage with fresh wood chip bedding at 20-22° C. under a 12 hour on/off light:dark cycle. […] After the rats went limp they were injected intraperitoneally (IP) with 0.1 mL ketamine/xylazine. The anesthetic state was maintained by IP injection of ketamine/xylazine on an as needed basis. Animal weights were determined post-anesthesia induction.
An indwelling catheter for blood sampling was inserted into the right carotid artery by exposing the trachea with Mayo scissors, clamping the bottom of the […] and tying off the top with surgical suture. The area between was nicked with small sharp scissors and Intramedic polyethylene tubing was inserted into the nicked area. The artery with the tubing was sealed with suture to prevent leakage. A 23-gauge Intramedic Luer Stub Adapter was inserted into the cannula and attached to a 3 way valve which was connected to a 3 cc syringe filled with 0.9% normal saline and a 1 cc syringe filled with 5 U/mL sodium heparin for blood sampling.
An intraduodenal injection was utilized to mimic oral delivery of an enterically coated capsule or tablet formulation. […] Mayo scissors were used to expose the duodenum and the site of administration was identified by measuring 5 cm from the junction of the stomach and the duodenum towards the jejunum. The measured site was identified by inserting a small piece of surgical suture underneath the site for injection. After the formulation was injected, the abdominal cavity was closed with surgical clips.
Blood samples were collected in tubes containing 20 μL 180 mM EDTA. The tubes were maintained on ice and then centrifuged at approximately 3000 rpm at 4° C. for 5 minutes. Plasma was harvested immediately after centrifugation of the samples and stored at −20° C. pending analysis.
Minocycline (VWR international) was used as an internal standard. Sample processing/clean-up of plasma samples was carried out offline by protein precipitation with acidified acetonitrile.
The HPLC system consisted of Shimadzu SIL-HTc HPLC system equipped with dual Shimadzu LC-10ADvp isopumps, a Shimadzu CTO-10ASvp column temperature controller and a Shimadzu SPD-10Avp variable wavelength detector. […] Mobile phase A consisted of 23 mM phosphate buffer pH 2.5 with 6 mM 1-octanesulfonic acid, while mobile phase B consisting of pure acetonitrile. […] The mobile phase flow rate was 1.2 mL/min. Detection was performed using the SPD-10Avp variable wavelength detector set at 350 nm, with a sensitivity of 0.001 aufs.
The samples were then centrifuged under refrigeration at 13 k rpm for 30 minutes. The supernatant was taken and the liquid was removed to dryness in a turbovap. The samples were then reconstituted in 55 μL 0.1M phosphate buffer, pH 3.8. Samples were maintained at 10° C. while on the autoinjector during sequence. The injection volume was 50 μL. The unknown concentration in rat plasma samples was determined by interpolation of the peak area ratios of analyte:internal standard versus the ratio of their nominal concentrations into the regression line obtained from calibration standards spiked in pooled rat plasma. No regression weighting was used for the calculations. […] The calibration curve covered the range of 0.05 μg/mL to 5.0 μg/mL.

[1] = […], RA869, ID, 400 mM CA/26 mM LLC
[2] = other: intraduodenal bolus injection, 4.8 mg/kg, ID, PBS, 4.8 mg/kg (RA851)
[3] = other: intraduodenal bolus injection, 4.8 mg/kg, pH 3.5, ID, 100 mM CA (pH 3.5), 26 mM LLC, 4.8 mg/kg (RA851)
[4] = other: intraduodenal bolus injection, 4.8 mg/kg, pH 3.5, ID, 400 mM CA (pH 3.5), 26 mM LLC, 4.8 mg/kg (RA851), parent Tigecycline peak only
[5] = other: intraduodenal bolus injection, 9 mg/kg, ID, PBS, 9.0 mg/kg (RA853), animal RA853-4 only
[6] = other: intraduodenal bolus injection, 9 mg/kg, pH 3.5, ID, 100 mM CA (pH 3.5), 26 mM LLC, 9.0 mg/kg (RA853)
[7] = other: intraduodenal bolus injection, 9 mg/kg, pH 3.5, ID, 400 mM CA (pH 3.5), 26 mM LLC, 9.0 mg/kg (RA853), parent Tigecycline peak only

CN(C)c1cc(NC(=O)CNC(C)(C)C)c(O)c2c1C[C@H]1C[C@H]3[C@H](N(C)C)C(O)=C(C(N)=O)C(=O)[C@@]3(O)C(O)=C1C2=O [Tigecycline]
Cmax ([…], RA869, ID, 26 mM LLC only, […], read-out: Cmax, mean): 105 ng/mL | AUC(0-t) [1]: 222 ng·h/mL | Tmax [1]: 15 min | bioavailability ([…], RA869, ID, 400 mM CA/26 mM LLC, […], read-out: % F, mean): 21.6% | Cmax ([…], RA869, ID, 400 mM CA/26 mM LLC, […], read-out: Cmax, mean): 246 ng/mL | concentration at 0 min [2]: 0 ng/mL | concentration at 10 min [2]: 31 ng/mL | concentration at 20 min [2]: 31 ng/mL | concentration at 30 min [2]: 33 ng/mL | concentration at 60 min [2]: 0 ng/mL | concentration at 120 min [2]: 53 ng/mL | concentration at 240 min [2]: 66 ng/mL | concentration at 0 min [3]: 0 ng/mL | concentration at 10 min [3]: 710 ng/mL | concentration at 20 min [3]: 672 ng/mL | concentration at 30 min [3]: 601 ng/mL | concentration at 60 min [3]: 398 ng/mL | concentration at 120 min [3]: 306 ng/mL | concentration at 0 min [4]: 0 ng/mL | concentration at 10 min [4]: 920 ng/mL | concentration at 20 min [4]: 788 ng/mL | concentration at 30 min [4]: 618 ng/mL | concentration at 60 min [4]: 455 ng/mL | concentration at 120 min [4]: 345 ng/mL | concentration at 240 min [4]: 386 ng/mL | concentration at 0 min [5]: 0 ng/mL | concentration at 10 min [5]: 0 ng/mL | concentration at 20 min [5]: 0 ng/mL | concentration at 30 min [5]: 391 ng/mL | concentration at 60 min [5]: 440 ng/mL | concentration at 120 min [5]: 129 ng/mL | concentration at 0 min [6]: 0 ng/mL | concentration at 10 min [6]: 1770 ng/mL | concentration at 20 min [6]: 1980 ng/mL | concentration at 30 min [6]: 1350 ng/mL | concentration at 60 min [6]: 608 ng/mL | concentration at 120 min [6]: 273 ng/mL | concentration at 0 min [7]: 0 ng/mL | concentration at 10 min [7]: 2490 ng/mL | concentration at 20 min [7]: 2160 ng/mL | concentration at 30 min [7]: 1760 ng/mL | concentration at 60 min [7]: 1060 ng/mL | concentration at 120 min [7]: 683 ng/mL | bioavailability (other: intraduodenal bolus injection, pH 3.5, ID, 400 mM CA pH 3.5 and 26 mM LLC (RA851, RA853), read-out: absolute % F): ~22% | bioavailability (other: intraduodenal injection, 4.8 mg/kg, ID, PBS, 4.8 mg/kg (RA851), relative to 0.64 mg/kg IV, read-out: % F, Mean): 1.6% | bioavailability (other: intraduodenal injection, 4.8 mg/kg, pH 3.5, ID, 100 mM CA (pH 3.5), 26 mM LLC, 4.8 mg/kg (RA851), relative to 0.64 mg/kg IV, read-out: % F, Mean): 10.9% | bioavailability (other: intraduodenal injection, 9 mg/kg, ID, PBS, 9.0 mg/kg (RA853), without animal RA853-6, relative to 12 mg/kg IV, read-out: % F, Mean): 2.8% | Cmax (other: intraduodenal injection, 9 mg/kg, ID, PBS, 9.0 mg/kg (RA853), suspected injection site leakage, read-out: Cmax, one animal not included in the mean): 1110 ng/mL | bioavailability (other: intraduodenal injection, 9 mg/kg, pH 3.5, ID, 100 mM CA (pH 3.5), 26 mM LLC, 9.0 mg/kg (RA853), relative to 12 mg/kg IV, read-out: % F, Mean): 11.4% | bioavailability (other: intraduodenal injection, 9 mg/kg, pH 3.5, ID, 400 mM CA (pH 3.5), 26 mM LLC, 9.0 mg/kg (RA853), parent Tigecycline peak only, relative to 12 mg/kg IV, read-out: % F, Mean): 21.8% | bioavailability (other: intraduodenal injection, […], RA869, ID, 26 mM LLC only, […], read-out: % F, mean): 9% | bioavailability (other: intraduodenal injection, […], RA869, ID, 400 mM CA/26 mM LLC, […], read-out: % F, mean): ~22% | bioavailability (other: intraduodenal injection, pH 3.5, ID, 100 mM CA pH 3.5 and 26 mM LLC (RA851, RA853), read-out: absolute % F): ~11%
